Common to all, as to format: cell-based
Data set [1] relates to HCV RNA replication. The experiment in a line: HCV Inhibition Assay (replicon; RT-PCR or luciferase reporter readout). The note with it: concentration for 90% inhibition of HCV replication, Clone A or ET-lunet replicon cells, 4 days. Here is the method: Clone A or ET-lunet cells were seeded at a density of 1500 or 3000 cells per well in a 96-well plate, respectively. Test compounds serially diluted in culture medium without G418 were added to cells so that the final DMSO concentration was 0.5%. Plates were incubated at 37° C. in a 5% CO2 atmosphere for 4 days. Inhibition of HCV RNA replication was determined by real time PCR (RT-PCR) or by measuring the levels of luminescence expressed via the luciferase reporter gene encoded within the ET replicon. Briefly, for the RT-PCR assay, total RNA was extracted using the RNeasy-96 kit as recommended by the manufacturer (Qiagen, Valencia, Calif.), reversed transcribed into cDNA, and amplified using primer and probe mix for HCV 5′-NTR RNA and human ribosomal RNA (rRNA) in a one-step RT-PCR reaction as described previously (Stuyver, L. J. et al. Antiviral Chem. Chemother. (2006) 17, 79-87). A relative quantification method was used to determine the extent of inhibition. The threshold cycle (Ct) of rRNA was subtracted from the Ct of HCV RNA (ΔCt). The average ΔCt of the DMSO cell controls was then subtracted from the ΔCt of the compound treated sample (ΔΔCt). Percent inhibition was determined by using the following equation: %=(1−(2^−ΔΔC^t))×100. For the luciferase-based replicon assay, luminescence was measured by using a Victor3 plate reader (Perkin-Elmer, Boston, Mass.) following the addition of Bright-Glo reagent as recommended by the manufacturer (Promega, Madison, Wis.). Percent inhibition of HCV replication was determined by comparing the change in luminescence of the drug treated wells versus the DMSO cell controls. EC50 and EC90 values, the concentrations at which 50% and 90% inhibition were achieved, were determined using the GraphPad Prism software (San Diego, Calif.).
For orientation: Replicon systems follow genome replication, usually without infectious particles.

The nature of data set [2]: Cell Cytotoxicity Assays (MTS dye). The note with it: human, 50% inhibition value, cell line not given; for CC50: 8 days. As to the method:
(§1) Cell Cytotoxicity Assays.
(§2) Each compound (serially diluted from 100 μM) was added to Huh7 (2×10^3 cells/well), HepG2 (2×10^3 cells/well), BxPC3 (2×10^3 cells/well), or CEM (5×10^3 cells/well) cells and allowed to incubate for 8 days at 37° C. A medium only control was used to determine the minimum absorbance value […]. At the end of the growth period, MTS dye from the CellTiter 96 Aqueous One Solution Cell Proliferation Assay kit (Promega) was added to each well and the plate was incubated for an additional 2 hours. The absorbance at 490 nm was read with a Victor3 plate reader (Perkin Elmer) using the medium only control wells as blanks. The 50% inhibition value (CC50) was determined by comparing the absorbance in wells containing cells and test compound to untreated cell control wells.

In data set [3] the test system is Huh7, HepG2, BxPC3, or CEM cells. As to the kind of experiment: Cell Cytotoxicity Assays (MTS dye). The note with it: 50% inhibition value, 8 days, cell line not given. As to the method:
as §1, §2

Data set [4] can be described thus: Cytotoxicity, MTT Assay (table footnote a).
[5] abbreviates: Hepatitis C virus, 96 h, read-out: EC90.

Like-named read-outs stand apart in the source and are kept apart here.

In general, EC90 refers to the concentration at which the effect reaches the 90% level. The CC50 is the concentration giving 50% cytotoxicity. High values mean lower toxicity to the cells, low ones greater toxicity to the cells. On to `COc1nc(N)nc2c1ncn2[C@@H]1O[C@H](COP(=O)(NCc2ccccc2)OCCSC(=O)C(C)(C)CO)[C@@H](O)[C@@]1(C)O` (single isomer, unassigned) [Compound 131a], for which the EC90 in data set [1] (setting [5]) came to 93 nM. The same compound showed a CC50 at 8 days in data set [2] of more than 20000 nM.

`COc1nc(N)nc2c1ncn2[C@@H]1O[C@H](COP(=O)(NCc2ccccc2)OCCSC(=O)C(C)(C)CO)[C@@H](O)[C@@]1(C)O` (single isomer, unassigned) [Compound 131b]: the EC90 in data set [1] (read-out: EC90) came to 186 nM. The same compound displayed a CC50 in data set [3] of more than 20000 nM.

`CC(C)(CO)C(=O)SCCOP(=O)(NCc1ccccc1)OC[C@H]1O[C@@H](n2cnc3c(=O)[nH]c(N)nc32)[C@](C)(O)[C@@H]1O` (single isomer, unassigned) [Compound 132a]: the EC90 in data set [1] (setting [5]) was found to be 300 nM. The same compound came in with a CC50 at 8 days in data set [2] of more than 20000 nM.

Turning to `CC(C)(CO)C(=O)SCCOP(=O)(NCc1ccccc1)OC[C@H]1O[C@@H](n2cnc3c(=O)[nH]c(N)nc32)[C@](C)(O)[C@@H]1O` (single isomer, unassigned) [Compound 132b], the concentration for an effect of 90% (EC90) in data set [1] (read-out: EC90) stood at 350 nM. Besides, in data set [3], the CC50 was more than 20000 nM.

In the case of `CNC(=O)c1c(-c2ccc(F)cc2)oc2cc(N(CCO)S(C)(=O)=O)c(C3CC3)cc12` [Compound 44, 5-cyclopropyl-2-(4-fluorophenyl)-6-[(2-hydroxyethyl)(methylsulfonyl)amino]-N-methyl-3-Benzofurancarboxamide, reference compound], in data set [1] (setting [5]), the EC90 turned out to be 20 nM. In addition, in data set [4], the CC50 is more than 10000 nM.

In the case of `CC(C)OC(=O)[C@H](C)NP(=O)(OC[C@H]1O[C@@H](n2ccc(=O)[nH]c2=O)[C@](C)(F)[C@@H]1O)Oc1ccccc1` (stereo partly drawn) [Compound 110, (S)-2-{[(1R,4R,5R)-5-(2,4-Dioxo-3,4-dihydro-2H-pyrimidin-1-yl)-4-(R)-fluoro-3-hydroxy-4-methyl-tetrahydro-furan-2-ylmethoxy]-phenoxy-phosphorylamino}-propionic acid (S)-isopropyl ester], the EC90 in data set [1] (read-out: EC90) worked out at 220 nM. Further, in data set [3], the CC50 was more than 20000 nM.

As to `COc1nc(N)nc2c1ncn2[C@@H]1O[C@H](CO[P@@](=O)(N[C@@H](C)C(=O)OC(C)C)Oc2ccccc2)[C@@H](O)[C@@]1(C)F` [Compound 117, SP-(2S)-isopropyl 2-(((((2R,3R,4R,5R)-5-(2-amino-6-methoxy-9H-purin-9-yl)-4-fluoro-3-hydroxy-4-methyltetrahydrofuran-2-yl)methoxy)(phenoxy)phosphoryl)amino)propanoate], in data set [1] (setting [5]), the EC90 worked out at 130 nM. In data set [2], this compound displayed a cytotoxic concentration (CC50) of more than 20000 nM.

Consider `COc1nc(N)nc2c1ncn2[C@@H]1O[C@H](CO[P@@](=O)(N[C@@H](C)C(=O)OC(C)C)Oc2ccccc2)[C@@H](O)[C@@]1(C)O` [Compound 133, (S)-isopropyl 2-(((S)-(((2R,3R,4R,5R)-5-(2-amino-6-methoxy-9H-purin-9-yl)-3,4-dihydroxy-4-methyltetrahydrofuran-2-yl)methoxy)(phenoxy)phosphoryl)amino)propanoate], for which, in data set [1] (setting [5]), the EC90 was 78 nM. In data set [2], this compound displayed a CC50 of 4140 nM.

As to `CC(C)OC(=O)[C@H](C)N[P@](=O)(OC[C@H]1O[C@@H](n2cnc3c(=O)[nH]c(N)nc32)[C@](C)(O)[C@@H]1O)Oc1ccccc1` [Compound 134, (S)-isopropyl 2-(((S)-(((2R,3R,4R,5R)-5-(2-amino-6-oxo-1H-purin-9(6H)-yl)-3,4-dihydroxy-4-methyltetrahydrofuran-2-yl)methoxy)(phenoxy)phosphoryl)amino)propanoate], the EC90 in data set [1] (setting [5]) was 560 nM. In addition, the CC50 in data set [2] is more than 20000 nM.

Turning to `CNC(=O)c1c(-c2ccc(F)cc2)oc2cc(N(CCO[P@@](=O)(N[C@@H](C)C(=O)OC(C)C)Oc3ccccc3)S(C)(=O)=O)c(C3CC3)cc12` [Compound 135, (S)-isopropyl 2-(((S)-(2-(N-(5-cyclopropyl-2-(4-fluorophenyl)-3-(methylcarbamoyl)benzofuran-6-yl)methylsulfonamido)ethoxy)(phenoxy)phosphoryl)amino)propanoate], in data set [1] (setting [5]), the EC90 was 81 nM. Also, the CC50 in data set [2] is more than 20000 nM.

As to `COc1nc(N)nc2c1ncn2[C@@H]1O[C@H](COP(=O)(N[C@@H](C)C(=O)OCC(C)(C)C)Oc2cccc3ccccc23)[C@@H](O)[C@@]1(C)O` (stereo partly drawn) [Compound 137, (2S)-neopentyl 2-(((((2R,3R,4R,5R)-5-(2-amino-6-methoxy-9H-purin-9-yl)-3,4-dihydroxy-4-methyltetrahydrofuran-2-yl)methoxy)(naphthalen-1-yloxy)phosphoryl)amino)propanoate], it took 1.7 nM to reach the 90% level in data set [1] (Hepatitis C virus, 96 h) (EC90). In addition, the CC50 at 8 days in data set [2] is more than 1000 nM.

As for `COc1nc(N)nc2c1ncn2[C@@H]1O[C@H](COP(=O)(N[C@@H](C)C(=O)OCC(C)(C)C)Oc2cccc3ccccc23)[C@@H](O)[C@@]1(C)O` (stereo partly drawn) [Compound 137a, (S)-neopentyl 2-(((((2R,3R,4R,5R)-5-(2-amino-6-methoxy-9H-purin-9-yl)-3,4-dihydroxy-4-methyltetrahydrofuran-2-yl)methoxy)(naphthalen-1-yloxy)phosphoryl)amino)propanoate], the concentration for an effect of 90% (EC90) in data set [1] (setting [5]) stood at 3.7 nM. In data set [2], this compound gave a CC50 of 930 nM.

In the case of `CC(C)OC(=O)[C@H](C)N[P@](=O)(OC[C@H]1O[C@@H](n2ccc3c(N)ncnc32)[C@](C)(O)[C@@H]1O)Oc1ccccc1` [Compound 139, (S)-2-{(S)-[(2R,3R,4R,5R)-5-(4-amino-pyrrolo[2,3-d]pyrimidin-7-yl)-3,4-dihydroxy-4-methyl-tetrahydro-furan-2-ylmethoxy]-phenoxy-phosphorylamino}-propionic acid isopropyl ester], the EC90 in data set [1] (setting [5]) was 20 nM. Further, the CC50 in data set [2] is more than 10000 nM.

On to `COc1nc(N)nc2c1ncn2[C@@H]1O[C@H](COP(=O)(N[C@@H](C)C(=O)OCC(C)(C)C)Oc2cccc3ccccc23)[C@@H](O)[C@@]1(C)F` (stereo partly drawn) [Compound 140, (2S)-neopentyl 2-(((((2R,3R,4R,5R)-5-(2-amino-6-methoxy-9H-purin-9-yl)-4-fluoro-3-hydroxy-4-methyltetrahydrofuran-2-yl)methoxy)(naphthalen-1-yloxy)phosphoryl)amino)propanoate], for which, in data set [1] (Hepatitis C virus, 96 h), the EC90 came out at 3.5 nM. For the same compound, the CC50 at 8 days in data set [2] is more than 20000 nM.

These data come from patent US8859756B2, “Stereoselective synthesis of phosphorus containing actives” (Gilead Pharmasset LLC, priority 2010, dated 2014).
